The values below come from patent US4861774A, “Method of treating tumors using tetracyclo compounds” (priority 1984, dated 1989).

The subject of one assay is MM46 Mammary carcinoma. In words: MM46 Mammary carcinoma in mice (Test 6). It is filed as in vivo, mice (C3 H/HeN). To be noted: 3.2 mg/kg i.p., days 1, 5 and 9; median survival time. An excerpt: MM46 Mammary carcinoma (1×10^6 cells), maintained i.p. by serial passage in female C3 H/HeN mice, was implanted i.p. to female C3 H/HeN mice on day 0, and the test compounds or vehicle were given i.p. to the mice once a day on days 1, 5 and 9.
(§1) Ten mice were used for each test group and twenty mice were used for each vehicle-treated control group.
(§2) Drug efficacy against the ascitic tumors is expressed as percentage of the median survival time of the test group to that of the control group. [formula]

The next assay has as its system Ehrlich carcinoma. Nature of the assay: Ehrlich carcinoma in mice (Test 6). To be noted: 3.2 mg/kg i.p., days 1, 5 and 9; median survival time. The format is in vivo, mice (ICR).
Source text: Ehrlich carcinoma (1×10^6 cells), maintained i.p. by serial passage in female ICR mice, implanted i.p. to female ICR mice on day 0, and the test compounds or vehicle were given i.p. to the mice once a day on days 1, 5 and 9.
as §1, §2

The next assay relates to EL4 Lymphoma. Nature of the assay: EL4 Lymphoma in mice (Test 6). The format is in vivo, mice (BDF1). To be noted: 10.0 mg/kg i.p., days 1, 5 and 9; median survival time.
Source text: EL4 Lymphoma (1×10^6 cells), maintained i.p. by serial passage in female C57BL/6 mice, was implanted i.p. to female BDF1 mice on day 0, and the test compounds or vehicle were given i.p. to the mice once a day on days 1, 5 and 9.
as §1, §2

Another assay deals with AMC60 Fibrosarcoma. In words: in vivo rat ascitic tumor model, AMC60 Fibrosarcoma (Test 8). Details: species or system rats (ACI/N). Particulars: 3.2 mg/kg i.p., days 1, 5 and 9; median survival time.
Source text: AMC60 Fibrosarcoma (1×10^6 cells), maintained i.p. by serial passage in female ACI/N rats, was implanted i.p. to female ACI/N rats on day 0, and the test compounds or vehicle were given i.p. to the rats once a day on days 1, 5 and 9. Seven rats were used for each test group or vehicle-treated control group.
as §2

Usually T/C stands for the ratio of treated to control. On to `NC(=O)OCC1c2c(O)cc(C=O)cc2N2CC3NC3C1(O)O2` (stereo not shown) [FR-900482 substance, 4-Formyl-6,9-dihydroxy-14-oxa-1,11-diazatetracyclo[7.4.1.0^2,7.0^10,12]tetradeca-2,4,6-trien-8-ylmethyl carbamate], for which the T/C is over 300% with MM46 Mammary carcinoma, over 270% in the assay on Ehrlich carcinoma, 169% in the assay with EL4 Lymphoma and over 333% in the assay on AMC60 Fibrosarcoma.
